Test results as given in US5382670A, “Platelet activating factor antagonists” (priority 1993, dated 1995).
Where a name gives a salt, the structure may show the parent alone. Read-outs that look alike come from different tables or passages of the source.

Molecular target: PAF receptor (Oryctolagus cuniculus, UniProt G1TEI7)
Test: PAF receptor binding assay: inhibition of specific [3H]C18-PAF binding to rabbit platelet membranes
Description: The ability of representative compounds of the present invention to inhibit PAF activity was determined in an in vitro test using the following method.
Citrated whole rabbit blood was obtained from Pel-Freez (Rogers, AR). Rabbit platelets were prepared by centrifugation and washing. The platelets were lysed by freeze-thawing and sonication; platelet membranes were prepared by centrifugation and washing. Final membrane preparations were stored frozen in 10 mM Tris/5 mM MgCl2 /2 mM EDTA (TME buffer, pH 7.0) with 0.25M sucrose added for membrane stabilization.
The standard PAF receptor binding assay contained 10 μg platelet membrane protein, 0.6 nM [^3 H]C18 -PAF (from Amersham or New England Nuclear; specific activity 120-180 Ci/mmol), with and without test compound, in "binding buffer" consisting of TME with 0.25% bovine serum albumin added (Sigma, RIA grade). The final volume of the assay was 100 μl. The assay was conducted in Millititre-GV™ (Millipore Corp.) filtration plates; incubation time was for 60 minutes at room temperature (22°-23° C.). "Specific binding" was operationally defined as the arithmetic difference between "total binding" of 0.6 nM [^3 H]C18 -PAF (in the abasence of added PAF) and "nonspecific binding" (in the presence of 1 μM PAF). After the prescribed incubation, platelet membranes were filtered under vacuum, and washed with 1 milliliter of "binding buffer". The filters were dried and removed. The bound radioactivity was quantitated with a Berthold TLC-Linear Analyzer model LB2842.
Dose-response curves of inhibition of specific [^3 H]C18 -PAF binding by test compounds were conducted in triplicate, with at least four doses covering the active range. Experiments were repeated at least once. IC50 values (concentration producing 50% inhibition) were determined by point-to-point evaluation. Ki values of inhibitory binding constants were calculated according to the method of Cheng and Prusoff [Biochem. Pharmacol. 22 (1973) 3099-3108] whereby [formula]
The values of Ki for representative compounds of the present invention appear in Table 1.

[1] = Ki (PAF Receptor Binding Activity), 0.6 nM [3H]C18-PAF, 60 min, 22-23 °C, Ki from IC50 (Cheng and Prusoff)
[2] = 0.6 nM [3H]C18-PAF, 60 min, 22-23 °C, Ki from IC50 (Cheng and Prusoff), read-out: Ki (PAF Receptor Binding Activity)

PAF receptor, sequence (G1TEI7 1-342): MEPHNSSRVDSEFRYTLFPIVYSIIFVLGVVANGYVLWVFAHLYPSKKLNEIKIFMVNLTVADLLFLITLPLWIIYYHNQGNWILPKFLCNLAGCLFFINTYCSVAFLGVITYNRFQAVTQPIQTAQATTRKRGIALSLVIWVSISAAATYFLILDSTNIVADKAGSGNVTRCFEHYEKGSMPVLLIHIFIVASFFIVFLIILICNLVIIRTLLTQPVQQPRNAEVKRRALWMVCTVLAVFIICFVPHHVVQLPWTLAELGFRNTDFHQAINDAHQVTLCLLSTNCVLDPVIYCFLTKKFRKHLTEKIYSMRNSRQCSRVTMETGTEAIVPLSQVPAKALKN

| Compound | Ki [2] [nM] | also measured |
| --- | --- | --- |
| CN(C)C(=O)Cn1cc(C(=O)C2CSC(c3cccnc3)N2)c2ccccc21 (stereo not shown) [Example 116, 1-(N,N-dimethylcarbamoylmethyl)-3-[2-(3-pyridinyl)thiazolid-4-oyl]indole] | – | Ki [1]: 7 nM |
| Cn1cc(C(=O)C2CSC(c3cccnc3)N2)c2ccccc21 (stereo not shown) [Example 22, 1-methyl-3-[2-3-pyridinyl)thiazolid-4-oyl]indole dihydrochloride] | – | Ki [1]: 13 nM |
| Cc1ccc2c(C(=O)C3CSC(c4cccnc4)N3)c[nH]c2c1 (stereo not shown) [Example 80, 3-[2-(3-pyridinyl)thiazolid-4-oyl]-6-methylindole] | – | Ki [1]: 3 nM |
| O=C(c1c[nH]c2ccccc12)C1CSC(c2cccnc2)N1 (stereo not shown) [Example 20, 3-[2-(3-pyridinyl)thiazolid-4-oyl]indole oxalate] | – | Ki [1]: 4 nM |
| Cc1ccc2c(C(=O)C3CSC(c4cccnc4)N3)cn(C(=O)OC(C)(C)C)c2c1 (stereo not shown) [Example 81, 1-tert-butoxycarbonyl-3-[2-(3-pyridinyl)thiazolid-4-oyl]-6-methylindole oxalate] | 2 | – |
| CN(C)C(=O)n1cc(C(=O)C2CSC(c3cccnc3)N2)c2ccc(OCc3ccccc3)cc21 (stereo not shown) [Example 123, 1-dimethylcarbamoyl-3-[2-(3-pyridinyl)thiazolid-4-oyl]-6-phenylmethoxyindole oxalate] | 2 | – |
| NC(=O)CCn1cc(C(=O)C2CSC(c3cccnc3)N2)c2ccccc21 (stereo not shown) [Example 121] | – | Ki (read-out: Ki (PAF Receptor Binding Activity), 0.6 nM [3H]C18-PAF, 60 min, 22-23 °C, Ki from IC50 (Cheng and Prusoff)): 6 nM |
| CC(=O)N1C(C(=O)c2cn(C(=O)OC(C)(C)C)c3ccccc23)CSC1c1cccnc1 (stereo not shown) [Example 57, 1-tert-butoxycarbonyl-3-[2-(3-pyridinyl)-3-acetylthiazolid-4-oyl]indole] | 10 | – |
| O=C(C1CSC(c2cccnc2)N1)n1ccc2cccnc21 (stereo not shown) [Example 19, 1-[2-(3-pyridinyl)thiazolid-4-oyl]-7-azaindole] | – | Ki [1]: 12500 nM |

Now from value to compound, other results behind:

| Ki [2] [nM] | Compound | also measured |
| --- | --- | --- |
| 175 | CN(C)C(=O)n1cc(C(=O)[C@@H]2CS[C@H](c3cccnc3)N2C(=O)C(F)(F)F)c2ccccc21 (relative stereo) [Example 105, cis-1-dimethylcarbamoyl-3-[2-(3-pyridinyl)-3-trifluoroacetylthiazolid-4-oyl]indole oxalate] | – |
| 10 | O=C(c1cn(C(=O)N2CCOCC2)c2cc(OCc3ccccc3)ccc12)C1CSC(c2cccnc2)N1 (stereo not shown) [Example 72, 1-(4-morpholinocarbonyl)-3-[2-(3-pyridinyl)thiazolid-4-oyl]-6-phenylmethoxyindole oxalate] | – |
| 1700 | O=C(c1c[nH]c2ccccc12)C1CSC(c2cccnc2)S1 (stereo not shown) [Example 31, 3-2-(3-pyridinyl)dithiolan-4-oyl]indole oxalate] | – |
| 1300 | CN(C)C(=O)n1cc(C(=O)C2COC(c3cccnc3)N2C=O)c2ccccc21 (stereo not shown) [Example 113, 1-dimethylcarbamoyl-3-[2-(3-pyridinyl)-3,formyloxazolid-4-oyl]indole] | – |
| 37 | CN(C)C(=O)n1cc(C(=O)C2CSC(c3cccnc3)N2C=O)c2ccccc21 (stereo not shown) [Example 91, 1-dimethylcarbamoyl-3-[2-(3-pyridinyl)-3-formylthiazolid-4-oyl]indole] | – |
| 2 | CN(C)C(=O)n1cc(C(=O)C2CSC(c3cccnc3)N2)c2ccc(C#Cc3ccccc3)cc21 (stereo not shown) [Example 78] | – |
| 4 | O=C(c1cn(C(=O)c2ccc(Cl)cc2)c2ccccc12)C1CSC(c2cccnc2)N1 (stereo not shown) [Example 44, 1-(4-chlorobenzoyl)-3-[2-(3-pyridinyl)thiazolid-4oyl]indole] | – |
| 5200 | CC(=O)N1C(C(=O)c2cn(C(=O)N(C)C)c3ccccc23)CSC1c1cccnc1 (stereo not shown) [Example 100, 1-dimethylcarbamoyl-3-[2-(3-pyridinyl)-3-acetylthiazolid-4-oyl]indole] | – |
| 2 | O=C(c1c[nH]c2cc(OCc3ccccc3)ccc12)C1CSC(c2cccnc2)N1 (stereo not shown) [Example 34, 6-phenylmethoxy-3-[2-(3-pyridinyl)thiazolid-4-oyl]indole] | – |
| 36 | Cc1ccc2c(c1)c(C(=O)C1CSC(c3cccnc3)N1)c(C)n2C(=O)N1CCOCC1 (stereo not shown) [Example 68, 1-(4-morpholinocarbonyl)-2,5-dimethyl-3-[2-(3-pyridinyl)thiazolid-4-oyl]indole] | – |
